This note sets out measurements from patent US20060084688A1, “Aromatic sulfone hydroxamic acid metalloprotease inhibitor” (priority 1997, published 2006).

Where two headings read alike, the source gives them in different places.

The conditions of series [1]: for t1/2: Rat Intraveneous.
Another series concerns the target T1, recombinant human MMP-2 (Homo sapiens, UniProt P08253).
T1 sequence (P08253 110-660): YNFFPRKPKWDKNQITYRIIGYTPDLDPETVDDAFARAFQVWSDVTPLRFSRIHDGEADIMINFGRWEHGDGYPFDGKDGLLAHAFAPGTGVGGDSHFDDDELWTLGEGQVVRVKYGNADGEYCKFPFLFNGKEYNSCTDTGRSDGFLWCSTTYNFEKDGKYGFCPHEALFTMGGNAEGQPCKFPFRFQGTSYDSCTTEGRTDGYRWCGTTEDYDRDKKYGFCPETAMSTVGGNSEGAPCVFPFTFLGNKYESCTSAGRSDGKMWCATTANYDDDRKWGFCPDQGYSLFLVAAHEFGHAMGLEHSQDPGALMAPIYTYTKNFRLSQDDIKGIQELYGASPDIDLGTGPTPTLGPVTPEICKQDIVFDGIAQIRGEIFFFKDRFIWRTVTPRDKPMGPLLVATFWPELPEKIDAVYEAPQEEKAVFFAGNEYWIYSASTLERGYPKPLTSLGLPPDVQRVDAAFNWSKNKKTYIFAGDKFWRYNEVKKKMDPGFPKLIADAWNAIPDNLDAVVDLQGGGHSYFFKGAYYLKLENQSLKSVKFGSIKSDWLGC
Kind of series: biochemical. Particulars: Inhibition Table B.

The next series addresses T2, recombinant human MMP-1 (Homo sapiens, UniProt P03956).
T2 construct: made in house; host or cells: transfected HT-1080 cells
T2 sequence (P03956 100-469): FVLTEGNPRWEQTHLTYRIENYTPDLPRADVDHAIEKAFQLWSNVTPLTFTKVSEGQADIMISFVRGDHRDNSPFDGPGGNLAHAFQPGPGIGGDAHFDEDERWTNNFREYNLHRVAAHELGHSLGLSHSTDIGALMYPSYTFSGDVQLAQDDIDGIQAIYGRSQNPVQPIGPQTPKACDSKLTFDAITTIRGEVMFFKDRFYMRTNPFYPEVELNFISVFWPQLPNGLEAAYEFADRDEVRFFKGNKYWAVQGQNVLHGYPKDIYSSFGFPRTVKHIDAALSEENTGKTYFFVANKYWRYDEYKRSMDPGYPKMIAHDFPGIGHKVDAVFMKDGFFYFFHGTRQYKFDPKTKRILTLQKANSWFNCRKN
Kind of series: biochemical. Particulars: Inhibition Table B.

A further series addresses recombinant human MMP-13 (Homo sapiens, UniProt P45452). Description: biochemical. Particulars: Inhibition Table B.

With `CC(=O)N1CCC(C(=O)NO)(S(=O)(=O)c2ccc(Oc3ccccc3)cc2)CC1` [Example 12, 1-acetyl-N-hydroxy-4-[(4-phenoxyphenyl)sulfonyl]-4-piperidinecarboxamide], the “Blood Level @ 3 min” value in series [1] (rat, in vivo, 20 mg/kg) was found to be 73540 ng/mL. For the same compound, in series [1] (rat, in vivo, po, 20 mg/kg), the BA is 11.1% and the “Blood Level @ 6 hr” value was 121 ng/mL.

Consider `Cl.O=C(NO)C1(S(=O)(=O)c2ccc(Oc3ccccc3)cc2)CCN(C2CC2)CC1` [Example 17, 1-cyclopropyl-N-hydroxy-4-[(4-phenoxyphenyl)sulfonyl]-4-piperidinecarboxamide], for which the “Blood Level @ 3 min” value in series [1] (rat, in vivo, 20 mg/kg) worked out at 63440 ng/mL. In series [1] (rat, in vivo, po, 20 mg/kg), the BA turned out to be 35.9% and the “Blood Level @ 6 hr” value is 135 ng/mL.

Consider `Cl.O=C(NO)C1(S(=O)(=O)c2ccc(Sc3ccccc3)cc2)CCN(C2CC2)CC1` [Example 32, 1-cyclopropyl-N-hydroxy-4-[[4-(phenylthio)phenyl]sulfonyl]-4-piperidine carboxamide, monohydrochloride], for which the t1/2 in series [1] (20 mpk) was found to be 1.03 h.

In the case of `CN1CCC(C(=O)NO)(S(=O)(=O)c2ccc(Sc3ccccc3)cc2)CC1.Cl` [Example 33, N-hydroxy-1-methyl-4-[[4-(phenylthio)phenyl]sulfonyl]-4-piperidinecarboxamide, monohydrochloride], the t1/2 in series [1] (20 mpk) was determined as 1.91 h.

`CC(=O)N1CCC(C(=O)NO)(S(=O)(=O)c2ccc(Sc3ccccc3)cc2)CC1.Cl` [Example 36, 1-acetyl-N-hydroxy-4-[[4-(phenylthio)phenyl]sulfonyl]-4-piperidinecarboxamide, monohydrochloride]: the t1/2 in series [1] (20 mpk) was 0.65 h.

The compound `C#CCN1CCC(C(=O)NO)(S(=O)(=O)c2ccc(Oc3ccc(C)c(C)c3)cc2)CC1.Cl` [Example 43, 4-[[4-(3,4-Dimethylphenoxyl)phenyl]sulfonyl]-N-hydroxy-1-(2-propynyl)-4-piperidinecarboxamide, monhydrochloride] returned a t1/2 in series [1] (20 mpk) of 0.82 h.

In series [1] (20 mpk), `Cl.O=C(NO)C1(S(=O)(=O)c2ccc(Oc3ccc(-n4cncn4)cc3)cc2)CCS(=O)(=O)CC1` [Example 53, Tetrahydro-N-hydroxy-4-[[4-[4-(1H-1,2,4-triazol-1-yl)phenoxy]-phenyl]-sulfonyl]-2H-thiopyran-4-carboxamide 1,1-dioxide, monohydrochloride] returned a t1/2 of 0.97 h. In addition, the “Blood Level @ 6 hr” value in series [1] (Rat Oral, 20 mpk, 6 hr) is “BLD”.

In series [1] (20 mpk), `C#CCN1CCC(C(=O)NO)(S(=O)(=O)c2ccc(Oc3ccc(Cl)c(C)c3)cc2)CC1.Cl` [Example 81, 4-[(4-(4-chloro-3-methylphenoxy)phenyl]sulfonyl]-N-hydroxy-1-(2-propynyl)-4-piperidinecarboxamide, monohydrochloride] had a t1/2 of 0.76 h.

The compound `Cl.O=C(NO)C1(S(=O)(=O)c2ccc(Oc3ccc(Cl)cc3)cc2)CCNCC1` [Example 93, 4-[[4-(4-chlorophenoxy)-phenyl]sulfonyl]-N-hydroxy-4-piperidinecarboxamide, monohydrochloride] returned a t1/2 in series [1] (20 mpk) of 1.81 h.

On to `O=C(NO)C1(S(=O)(=O)c2ccc(Oc3ccccc3)cc2)CCOCC1` [Example 94, Tetrahydro-N-hydroxy-4-[(4-phenoxyphenyl)sulfonyl]-2H-pyran-4-carboxamide], for which the t1/2 in series [1] (20 mpk) came out at 1.71 h.

In turn, `Cl.O=C(NO)C1(S(=O)(=O)c2ccc(Oc3ccc(-n4ccnc4)cc3)cc2)CCOCC1` [Example 99, tetrahydro-N-hydroxy-4-[[4-[4-(1H-imidazol-1-yl)phenoxy]phenyl]-sulfonyl]-2H-pyran-4-carboxamide, monohydrochloride] showed a t1/2 in series [1] (20 mpk) of 0.68 h.

`O=C(NO)C1(S(=O)(=O)c2ccc(Oc3ccc(Cl)cc3)cc2)CCOCC1` [Example 100, 4-[[4-(4-chlorophenoxy)-phenyl]sulfonyl]-tetrahydro-N-hydroxy-2H-pyran-4-carboxamide] showed a t1/2 in series [1] (20 mpk) of 1.50 h.

Compound `O=C(NO)C1(S(=O)(=O)c2ccc(Sc3ccc(F)cc3)cc2)CCOCC1` [Example 103, 4-[[4-[(4-fluorophenyl)-thio]phenyl]sulfonyl]tetrahydro-N-hydroxy-2H-pyran-4-carboxamide] yielded a t1/2 in series [1] (20 mpk) of 1.10 h.

In series [1] (20 mpk), `Cl.O=C(NO)C1(S(=O)(=O)c2ccc(Sc3ccncc3)cc2)CCOCC1` [Example 104, Tetrahydro-N-hydroxy-4-[[4-(4-pyridinylthio)phenyl]sulfonyl]-2H-pyran-4-carboxamide, monohydrochloride] showed a t1/2 of 0.66 h.

`O=C(NO)C1(S(=O)(=O)c2ccc(Oc3ccccc3)cc2)CCSCC1` [Example 109] gave a t1/2 in series [1] (20 mpk) of 1.12 h.

The compound `O=C(NO)C1(S(=O)(=O)c2ccc(Oc3ccccc3)cc2)CC[S+]([O-])CC1` (centres unmarked) [Example 111] yielded a t1/2 in series [1] (20 mpk) of 0.65 h.

`Nc1ccc(Sc2ccc(S(=O)(=O)C3(C(=O)NO)CCSCC3)cc2)cc1` [Example 115, tetrahydro-N-hydroxy-4-[[4-[4-aminophenyl)thiophenoxy]phenyl]sulfonyl 2H-thionyran-4-carboxamide] registered a t1/2 in series [1] (20 mpk) of 1.36 h.

Take `O=C(O)CNc1ccc(Oc2ccc(S(=O)(=O)C3(C(=O)NO)CCSCC3)cc2)cc1` [Example 117, tetrahydro-N-hydroxy-4-[[4-[4-hydroxyphenylglycine)]phenyl]sulfonyl 2H-thionyran-4-carboxamide]: the t1/2 in series [1] (20 mpk) was determined as 0.78 h.

The compound `NCC(=O)Nc1ccc(Sc2ccc(S(=O)(=O)C3(C(=O)NO)CCSCC3)cc2)cc1` [Example 118] gave a t1/2 in series [1] (20 mpk) of 1.85 h.

In series [1] (20 mpk), `CC(C)c1ccc(Oc2ccc(S(=O)(=O)C3(C(=O)NO)CCOCC3)cc2)cc1` [Example 125, tetrahydro-N-hydroxy-4-[[4-[4-(1-methylethyl)phenoxy]phenyl]-sulfonyl]-2H-pyran-4-carboxamide] came in with a t1/2 of 0.73 h.

Broadly, the IC50 is the concentration that gives 50% inhibition. In the case of `CN(C)C(=O)N1CCN(c2ccc(S(=O)(=O)C3(C(=O)NO)CCOCC3)cc2)CC1` [Example 208], the IC50 on recombinant human MMP-2 is 27 nM; at recombinant human MMP-1 it was over 10000 nM; on recombinant human MMP-13 it was 27 nM.

As for `O=C(N1CCNCC1)N1CCN(c2ccc(S(=O)(=O)C3(C(=O)NO)CCOCC3)cc2)CC1` [Example 209], the IC50 on recombinant human MMP-2 was 19 nM; at recombinant human MMP-1 it was over 10000 nM; at recombinant human MMP-13, 20 nM.

For the compound `CN1CCN(C(=O)N2CCN(c3ccc(S(=O)(=O)C4(C(=O)NO)CCOCC4)cc3)CC2)CC1` [Example 210], the results for the concentration for half-maximal inhibition (IC50) at recombinant human MMP-2, at recombinant human MMP-1 and on recombinant human MMP-13 were 27 nM, over 10000 nM and 20 nM, respectively.

As for `CCOC(=O)C1CCN(C(=O)N2CCN(c3ccc(S(=O)(=O)C4(C(=O)NO)CCOCC4)cc3)CC2)CC1` [Example 211], the figures for the IC50 on recombinant human MMP-2, on recombinant human MMP-1 and on recombinant human MMP-13 were 33 nM, over 10000 nM and 24 nM, respectively.

For the compound `CCOC(=O)C1CCCN(C(=O)N2CCN(c3ccc(S(=O)(=O)C4(C(=O)NO)CCOCC4)cc3)CC2)C1` (centres unmarked) [Example 212], the IC50 is 33 nM on recombinant human MMP-2, over 10000 nM on recombinant human MMP-1 and 20 nM at recombinant human MMP-13.

As for `O=C(NO)C1(S(=O)(=O)c2ccc(-c3cccc([N+](=O)[O-])c3)cc2)CCOCC1` [Example 214], the figures for the IC50 on recombinant human MMP-2, on recombinant human MMP-1 and on recombinant human MMP-13 were under 1 nM, 1100 nM and under 1 nM, respectively.

As to `O=C(NO)C1(S(=O)(=O)c2ccc(-c3ccc(Cl)cc3)cc2)CCOCC1` [Example 216], the 50% inhibitory concentration (IC50) on recombinant human MMP-2 was under 1 nM; at recombinant human MMP-1 it was 1000 nM; at recombinant human MMP-13, under 1 nM.

As to `O=C(NO)C1(S(=O)(=O)c2ccc(-c3ccc(C(F)(F)F)cc3)cc2)CCOCC1` [Example 221], the IC50 at recombinant human MMP-2 was under 1 nM; at recombinant human MMP-1 it was 1600 nM; on recombinant human MMP-13 it was under 1 nM.

For the compound `Cc1cc(-c2ccc(S(=O)(=O)C3(C(=O)NO)CCOCC3)cc2)ccc1F` [Example 222], the IC50 was under 1 nM at recombinant human MMP-2, 100 nM on recombinant human MMP-1 and under 1 nM on recombinant human MMP-13.

Take `Cc1ccc(-c2ccc(S(=O)(=O)C3(C(=O)NO)CCOCC3)cc2)cc1C` [Example 223]: the IC50 is under 1 nM at recombinant human MMP-2, 1100 nM at recombinant human MMP-1 and under 1 nM on recombinant human MMP-13.

`O=C(NO)C1(S(=O)(=O)c2ccc(-c3cc4ccccc4o3)cc2)CCOCC1` [Example 229]: the IC50 at recombinant human MMP-2 is under 1 nM; at recombinant human MMP-1 it was over 10000 nM; on recombinant human MMP-13 it was under 1 nM.

In turn, `O=C(NO)C1(S(=O)(=O)c2ccc(Oc3ccc(SC(F)(F)F)cc3)cc2)CCOCC1` [Example 382, Tetrahydro-N-hydroxy-4-[[4-[4-[(trifluoromethyl)thio]phenoxy]phenyl]-sulfonyl]-2H-pyran-4-carboxamide] displayed a t1/2 in series [1] (20 mpk) of 1.71 h.
